Data taken from publication PMC3760505 (Bioorganic & medicinal chemistry letters, 2009).

Tests used:
[1] = tested on: T. brucei brucei parasites
in vitro = details: human, Jurkat cells
rhodesain = rhodesain (Trypanosoma brucei rhodesiense, UniProt Q95PM0); assay: biochemical; details: read-out: rhodesain inhibition kinetics kinact/Ki
[2] = tested on: T. brucei brucei parasites; assay: microbe, parasite or virus in culture; details: Trypanosoma brucei, read-out: parasite growth inhibition GI50 T.b.b parasites
Jurkat cells = details: at 10 uM
cruzain = cruzain (Trypanosoma cruzi, UniProt P25779); details: initial survey of non-peptidic P2/P3 moieties
Chain of cruzain (P25779 123-467): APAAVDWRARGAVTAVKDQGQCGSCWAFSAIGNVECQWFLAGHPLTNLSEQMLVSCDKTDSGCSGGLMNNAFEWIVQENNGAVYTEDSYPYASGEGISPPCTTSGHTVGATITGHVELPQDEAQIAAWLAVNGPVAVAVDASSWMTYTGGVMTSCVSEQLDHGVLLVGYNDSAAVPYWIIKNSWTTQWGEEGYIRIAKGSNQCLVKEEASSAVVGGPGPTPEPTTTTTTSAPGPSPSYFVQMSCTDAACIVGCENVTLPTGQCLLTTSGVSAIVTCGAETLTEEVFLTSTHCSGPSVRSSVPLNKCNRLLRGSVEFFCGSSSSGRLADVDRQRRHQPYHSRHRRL

Chain of rhodesain (Q95PM0 1-450): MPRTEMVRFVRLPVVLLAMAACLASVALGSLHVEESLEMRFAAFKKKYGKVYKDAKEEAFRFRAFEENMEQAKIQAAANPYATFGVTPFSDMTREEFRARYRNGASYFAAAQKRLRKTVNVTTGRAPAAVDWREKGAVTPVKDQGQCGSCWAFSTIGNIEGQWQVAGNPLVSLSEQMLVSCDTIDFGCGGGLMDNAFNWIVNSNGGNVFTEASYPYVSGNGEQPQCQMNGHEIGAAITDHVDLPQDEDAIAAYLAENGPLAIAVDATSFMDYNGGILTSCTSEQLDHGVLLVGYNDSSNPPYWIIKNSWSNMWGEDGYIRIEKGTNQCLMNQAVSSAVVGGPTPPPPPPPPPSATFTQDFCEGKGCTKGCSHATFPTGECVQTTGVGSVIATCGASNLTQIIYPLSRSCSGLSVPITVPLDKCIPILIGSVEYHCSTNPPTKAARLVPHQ

| SMILES | effect against cultured parasites (in words) [1] | IC50 (in vitro) [µM] | kinact/KI (rhodesain) [M⁻¹ s⁻¹] | also measured |
| --- | --- | --- | --- | --- |
| Cc1nc(-c2ccccc2)sc1C(=O)N[C@H](/C=C/S(=O)(=O)c1ccccc1)CCc1ccccc1 [3a] | ineffective against cultured parasites | > 100 | 84000 | – |
| Cc1nc(-c2cccnc2)sc1C(=O)N[C@H](/C=C/S(=O)(=O)c1ccccc1)CCc1ccccc1 [3b] | antiparasitic effects at low micromolar concentration | – | – | – |
| Cc1nc(-c2cnccn2)sc1C(=O)N[C@H](/C=C/S(=O)(=O)c1ccccc1)CCc1ccccc1 [3c] | antiparasitic effects at low micromolar concentration | > 100 | 25200 | – |
| O=C(N[C@H](/C=C/S(=O)(=O)c1ccccc1)CCc1ccccc1)c1cc(-c2ccccc2)no1 [4a] | ineffective against cultured parasites | > 100 | 3610 | – |
| O=C(N[C@H](/C=C/S(=O)(=O)c1ccccc1)CCc1ccccc1)c1cc(-c2ccncc2)no1 [4b] | antiparasitic effects at low micromolar concentration | > 100 | 8590 | – |
| O=C(N[C@H](/C=C/S(=O)(=O)c1ccccc1)CCc1ccccc1)c1cc(-c2cccnc2)no1 [4c] | – | > 100 | – | – |
| O=C(N[C@H](/C=C/S(=O)(=O)c1ccccc1)CCc1ccccc1)c1cc(-c2ccccn2)no1 [4d] | antiparasitic effects at low micromolar concentration | > 100 | 7720 | – |
| O=C(N[C@H](/C=C/S(=O)(=O)c1ccccc1)CCc1ccccc1)[C@@H]1CCCC[C@H]1C(=O)c1ccc(Cl)cc1 [7a] | – | > 100 | 9750 | GI50 [2]: 12 µM |
| O=C(N[C@H](/C=C/S(=O)(=O)c1ccccc1)CCc1ccccc1)[C@H]1CCCC[C@@H]1C(=O)c1ccc(Cl)cc1 [7b] | – | – | 2160 | – |
| CN1CCN(C(=O)N[C@@H](Cc2ccccc2)C(=O)N[C@H](/C=C/S(=O)(=O)c2ccccc2)CCc2ccccc2)CC1 [K-777 (1)] | – | – | – | cytotoxicity Jurkat cells, percent at single concentration (Jurkat cells): 3% at 10 uM |
| Cc1onc(-c2ccc(F)cc2)c1C(=O)N[C@H](/C=C/S(=O)(=O)c1ccccc1)CCc1ccccc1 [compound 5] | – | – | – | enzyme activity (in words) (cruzain): ineffective |
| CC(C)(C)c1cc(C(=O)N[C@H](/C=C/S(=O)(=O)c2ccccc2)CCc2ccccc2)n(Cc2ccccc2)n1 [compound 6] | – | – | – | enzyme activity (in words) (cruzain): ineffective |
